# Tested on: c-fos
# Experiment: c-fos activation (Fos-like immunoreactivity) in rat brain after atomoxetine
# Assay type: in vivo
# Conditions: rats, 3 mg/kg i.p., two hours after administration
# Method: The immediate-early gene, c-fos, and its protein products have been increasingly utilized as markers for neuronal activation (Dragunow and Faull, J. Neurosci. Methods, 29, 261-265 (1989); Morgan and Curran, Prog. In Brain Res., 86, 287-294 (1990); Robertson, et al., J. Pharmacol. Exp. Ther., 271, 1058-1066 (1994)). C-fos activation is measured as illustrated below for atomoxetine.
# Two hours after administration of atomoxetine (3 mg/kg, i.p.), the rats were deeply anesthetized with sodium pentobarbital (60 mg/kg, i.p.) and transcardially perfused with 100 ml of phosphate buffered saline (PBS) followed by 100 ml of 4% paraformaldehyde in PBS. The brain was rapidly removed, postfixed for 90 min in 4% paraformaldehyde and then was transferred to 30% sucrose at […] until saturated. After quick freezing, serial 30 μm sections were cut and placed in PBS until processed for immunohistochemistry. In brief, sections were incubated in PBS containing blocking serum and 0.5% Triton-X 100 for 1 hour. Sections were then incubated with anti-Fos antibody (Santa Cruz Biotechnology, Inc.) at 4° C. overnight. Visualization of the Fos-like immunoreactivity was performed with a Vectastain ABC Elite Kit (Vector Labs, Burlingame, Calif.) using the standard protocol supplied with the kit. Nickel-intensified diaminobenzidine (DAB) was used as the chromagen to yield a gray-black precipitation product. Following visualization of the Fos immunoreactivity, the sections were mounted on gelatin-coated glass slides and allowed to dry. The sections were then dehydrated and cover slipped. Fos expressing cells were quantitated using the MCID M2 imaging system (Imaging Research, St. Catherines, Ontario).
structure (smiles),measurement,setting,value
"CNCC[C@@H](Oc1ccccc1C)c1ccccc1 [Atomoxetine, (R)-(−)-N-methyl-3-(2-methylphenoxy)-3-phenylpropylamine]","Fos positive cells, Nucleus Accumbens",nucleus accumbens,152 ± 44 Fos positive cells/mm^2
same,"Fos positive cells, Prefrontal Cortex",prefrontal cortex,296 ± 26 Fos positive cells/mm^2
same,"Fos positive cells, Striatum",striatum,102 ± 35 Fos positive cells/mm^2
same,"expression of c-fos (regional pattern, in words)",summary of the table,increased the expression of c-fos only in the cortical areas

# — patent US20050009925A1, “Use of norepinephrine reuptake inhibitors for the treatment of cognitive failure” (priority 2001, published 2005)
